Results: ChEMBL document CHEMBL2424524, “Synthesis and biological evaluation of novel ocotillol-type triterpenoid derivatives as antibacterial agents” (Eur J Med Chem, 2013)
≈ marks a conversion by molar mass, not a printed value.

Assays:
[1] = tested on: Escherichia coli; assay: Antibacterial activity against Escherichia coli by dilution technique; type: functional
[2] = tested on: Pseudomonas aeruginosa; assay: Antibacterial activity against Pseudomonas aeruginosa by dilution technique; type: functional
[3] = tested on: Acinetobacter baumannii; assay: Antibacterial activity against Acinetobacter baumannii by dilution technique; type: functional
[4] = tested on: Bacillus subtilis; assay: Antibacterial activity against Bacillus subtilis 168 by dilution technique; type: functional; conditions: subsp. subtilis str. 168
[5] = tested on: Staphylococcus aureus; assay: Antibacterial activity against Staphylococcus aureus RN4220 by dilution technique; type: functional
[6] = Selectivity index, ratio of IC50 for human HEK293 cells to MIC for Staphylococcus aureus RN4220; type: functional
[7] = Selectivity index, ratio of IC50 for human HeLa cells to MIC for Staphylococcus aureus RN4220; type: functional
[8] = Selectivity index, ratio of IC50 for human HEK293 cells to MIC for community associated methicillin-resistant Staphylococcus aureus USA300; type: functional
[9] = Selectivity index, ratio of IC50 for human HeLa cells to MIC for community associated methicillin-resistant Staphylococcus aureus USA300; type: functional
[10] = tested on: HeLa; assay: Cytotoxicity against human HeLa cells after 72 hrs by MTT assay; type: cell-based
[11] = tested on: HEK293; assay: Cytotoxicity against human HEK293 cells after 72 hrs by MTT assay; type: cell-based; conditions: HEK293, 72 h
[12] = tested on: Bacillus subtilis; assay: Antibacterial activity against Bacillus subtilis 168 by dilution technique in presence of chloramphenicol; type: functional, subsp. subtilis str. 168
[13] = tested on: Staphylococcus aureus; assay: Antibacterial activity against community associated methicillin-resistant Staphylococcus aureus USA300 by dilution technique in presence of chloramphenicol; type: functional
[14] = tested on: Bacillus subtilis; assay: Antibacterial activity against Bacillus subtilis 168 by dilution technique in presence of kanamycin; type: functional, subsp. subtilis str. 168
[15] = tested on: Staphylococcus aureus; assay: Antibacterial activity against community associated methicillin-resistant Staphylococcus aureus USA300 by dilution technique in presence of kanamycin; type: functional
[16] = tested on: Staphylococcus aureus; assay: Antibacterial activity against community associated methicillin-resistant Staphylococcus aureus USA300 by dilution technique; type: functional

Compound	MIC [1] [µg/mL]	MIC [2] [µg/mL]	MIC [3] [µg/mL]	MIC [4] [µg/mL]	MIC [5] [µg/mL]	Selectivity Index [6]	Selectivity Index [7]	Selectivity Index [8]	Selectivity Index [9]	IC50 [10] [µg/mL]	IC50 [11] [µg/mL]	fractional inhibitory concentration index (FICI) [12]	fractional inhibitory concentration index (FICI) [13]	fractional inhibitory concentration index (FICI) [14]	fractional inhibitory concentration index (FICI) [15]	MBC [4] [µg/mL]	MBC [5] [µg/mL]	MBC [16] [µg/mL]	MIC [16] [µg/mL]
CC(C)(O)[C@H]1CC[C@@](C)([C@H]2CC[C@]3(C)[C@@H]2[C@H](O)C[C@@H]2[C@@]4(C)CCC(=O)C(C)(C)[C@@H]4CC[C@]23C)O1	> 128	> 128	> 128	128 (≈ 270 µM)	128 (≈ 270 µM)														
CC(=O)O[C@@H]1C[C@@H]2[C@@]3(C)CC[C@H](O)C(C)(C)[C@@H]3CC[C@@]2(C)[C@]2(C)CC[C@H]([C@]3(C)CC[C@@H](C(C)(C)O)O3)[C@@H]12	64 (≈ 123 µM)	64 (≈ 123 µM)	64 (≈ 123 µM)	> 128	> 128														
CC(C)(O)[C@@H]1CC[C@@](C)([C@H]2CC[C@]3(C)[C@@H]2C(=O)C[C@@H]2[C@@]4(C)CC[C@H](O)C(C)(C)[C@@H]4CC[C@]23C)O1	64 (≈ 135 µM)	> 128	> 128	> 128	64 (≈ 135 µM)														
CC(C)(O)[C@@H]1CC[C@@](C)([C@H]2CC[C@]3(C)[C@@H]2[C@H](OC(=O)c2ccccc2C(=O)O)C[C@@H]2[C@@]4(C)CC[C@H](O)C(C)(C)[C@@H]4CC[C@]23C)O1	> 128	128 (≈ 205 µM)	> 128	16 (≈ 25.6 µM)	4 (≈ 6.4 µM)	43.8	13.6	5.5	1.7	54.4 (≈ 87 µM)	175 (≈ 281 µM)	<0.004	0.005	<0.008	0.008	64 (≈ 102 µM)	64 (≈ 102 µM)	128 (≈ 205 µM)	32 (≈ 51.2 µM)
CC(C)(O)[C@@H]1CC[C@@](C)([C@H]2CC[C@]3(C)[C@@H]2[C@H](OC(=O)/C=C/c2ccccc2)C[C@@H]2[C@@]4(C)CC[C@H](O)C(C)(C)[C@@H]4CC[C@]23C)O1	> 128	128 (≈ 211 µM)	32 (≈ 52.7 µM)	> 128	> 128														
CC(=O)O[C@@H]1C[C@@H]2[C@@]3(C)CC[C@H](O)C(C)(C)[C@@H]3CC[C@@]2(C)[C@]2(C)CC[C@H]([C@]3(C)CC[C@H](C(C)(C)O)O3)[C@@H]12	64 (≈ 123 µM)	128 (≈ 247 µM)	128 (≈ 247 µM)	> 128	64 (≈ 123 µM)														
CC(C)(O)[C@H]1CC[C@@](C)([C@H]2CC[C@]3(C)[C@@H]2C(=O)C[C@@H]2[C@@]4(C)CC[C@H](O)C(C)(C)[C@@H]4CC[C@]23C)O1	> 128	> 128	> 128	128 (≈ 270 µM)	> 128														
CC(C)(O)[C@H]1CC[C@@](C)([C@H]2CC[C@]3(C)[C@@H]2[C@H](OC(=O)c2ccccc2C(=O)O)C[C@@H]2[C@@]4(C)CC[C@H](O)C(C)(C)[C@@H]4CC[C@]23C)O1	> 128	> 128	> 128	16 (≈ 25.6 µM)	64 (≈ 102 µM)											128 (≈ 205 µM)			64 (≈ 102 µM)
CC(C)(O)[C@H]1CC[C@@](C)([C@H]2CC[C@]3(C)[C@@H]2[C@H](O)C[C@@H]2[C@@]4(C)CC[C@H](O)C(C)(C)[C@@H]4CC[C@]23C)O1	> 128	> 128	128 (≈ 268 µM)	128 (≈ 268 µM)	64 (≈ 134 µM)														
CC(C)(O)[C@@H]1CC[C@@](C)([C@H]2CC[C@]3(C)[C@@H]2C(=O)C[C@@H]2[C@@]4(C)CCC(=O)C(C)(C)[C@@H]4CC[C@]23C)O1	> 128	> 128	> 128	64 (≈ 135 µM)	16 (≈ 33.8 µM)	10.6	2.9	10.6	2.9	47 (≈ 99.4 µM)	170 (≈ 360 µM)								16 (≈ 33.8 µM)
CC(C)(O)[C@@H]1CC[C@@](C)([C@H]2CC[C@]3(C)[C@@H]2[C@H](O)C[C@@H]2[C@@]4(C)CCC(=O)C(C)(C)[C@@H]4CC[C@]23C)O1	> 128	> 128	> 128	32 (≈ 67.4 µM)	> 128														
CC(C)(O)[C@H]1CC[C@@](C)([C@H]2CC[C@]3(C)[C@@H]2C(=O)C[C@@H]2[C@@]4(C)CCC(=O)C(C)(C)[C@@H]4CC[C@]23C)O1	> 128	> 128	> 128	128 (≈ 271 µM)	128 (≈ 271 µM)														
C=C(C)[C@@H]1CC[C@]2(C(=O)O)CC[C@]3(C)[C@H](CC[C@@H]4[C@@]5(C)CC[C@H](O)[C@@](C)(CO)[C@@H]5CC[C@]43C)[C@@H]12	> 128	> 128	> 128	8 (≈ 16.9 µM)	16 (≈ 33.8 µM)														16 (≈ 33.8 µM)
CC(C)=CCC[C@](C)(O)[C@H]1CC[C@]2(C)[C@@H]1[C@H](O)C[C@@H]1[C@@]3(C)CC[C@H](O)C(C)(C)[C@@H]3CC[C@]12C	64 (≈ 139 µM)	> 128	64 (≈ 139 µM)	32 (≈ 69.5 µM)	16 (≈ 34.7 µM)							0.53	1.13	0.25	0.26				32 (≈ 69.5 µM)
CC(C)(O)[C@@H]1CC[C@@](C)([C@H]2CC[C@]3(C)[C@@H]2[C@H](O)C[C@@H]2[C@@]4(C)CC[C@H](O)C(C)(C)[C@@H]4CC[C@]23C)O1	> 128	> 128	> 128	8 (≈ 16.8 µM)	8 (≈ 16.8 µM)	19.3	6	19.3	6	47.6 (≈ 99.9 µM)	154 (≈ 324 µM)	1.25	1.5	1.03	0.14				8 (≈ 16.8 µM)
O=C(N[C@H](CO)[C@H](O)c1ccc([N+](=O)[O-])cc1)C(Cl)Cl [CHLORAMPHENICOL]				2 (≈ 6.19 µM)															4 (≈ 12.4 µM)
O=c1[nH]cc(F)c(=O)[nH]1 [FLUOROURACIL]										0.8 (≈ 6.15 µM)									
NC[C@H]1O[C@H](O[C@H]2[C@H](O)[C@@H](O[C@H]3O[C@H](CO)[C@@H](O)[C@H](N)[C@H]3O)[C@H](N)C[C@@H]2N)[C@H](O)[C@@H](O)[C@@H]1O [KANAMYCIN]	1 (≈ 2.06 µM)	8 (≈ 16.5 µM)	1 (≈ 2.06 µM)	0.25 (≈ 0.516 µM)	1 (≈ 2.06 µM)											1 (≈ 2.06 µM)		4 (≈ 8.26 µM)	1 (≈ 2.06 µM)
